Entries after “also recorded” stand apart in the source; their conditions may differ. Where two headings read alike, the source gives them in different places.

Consider 16 compounds from article PMC9409361, “EsigGOBP1: The Key Protein Binding Alpha-Phellandrene in Endoclita signifer Larvae” (International Journal of Molecular Sciences, 2022).

One assay deals with recombinant EsigGOBP1. Put plainly: Fluorescence competition binding assay (FCBA) with 1-NPN probe. As to conditions: for binding affinities for EsigGOBP1 (in words): FCBA, ordered by Kd values; for Ki: calculated from IC50: Ki = [IC50]/(1 + [1-NPN]/K1-NPN); for IC50: competitive binding, 1-NPN and EsigGOBP1 both at 2 μM, ligands 2–24 μM, pH 7.4. Further details: species or system Endoclita signifer. On the procedure: N-phenyl-1-naphthylamine (1-NPN) was selected for use as a selectively fluorescent probe to measure the affinity of ligand binding to recombinant EsigGOBP1 [20, 42]. Twelve volatiles (Table 1) from eucalyptus trunks and humus soil under eucalyptus plantation were collected, identified and screened using the dynamic headspace adsorption method, gas chromatograph coupled to mass selective detector, gas chromatograph electroantennal detection and Y-tube olfactometer bioassay (Table S1). […] A 2 μM solution of EsigGOBP1 was prepared in 20 mM Tris-HCl buffer (pH 7.4), and the ligands were dissolved in chromatographically pure methanol as 1 mM stock solutions. […] Intensity values corresponding to maximum fluorescence emission were plotted against free ligand concentrations to determine dissociation constants. K1-NPN values were calculated by Scatchard plots to linearize curves.

Assay [1] has as its system EsigGOBP1 expression in the head of E. signifer larvae. Briefly: qRT-PCR expression of EsigGOBP1 in larval heads after exposure to volatiles. In kind it is in vivo, Endoclita signifer. The procedure: The 3rd and 5th instar larvae of E. signifer were exposed to 12 GC-EAD active volatile compounds (Table S1). The exposure method followed that of Llopis-Gimenez and Hu. Thirty-three 5th instar larvae were exposed to ten compounds and only methanol (control) with three biological replicates (50 μL of each odorant diluted to 10 g/L in methanol in a 50 mL jar for 24 h). Thereafter, the total RNA from the heads of these larvae were extracted and its concentration and purity measured. The residual genomic DNA in the total RNA was removed using DNase I (Thermo Scientific, Waltham, MA, USA) then purified RNA used to synthesize cDNA following the method of Zhang. The treatments carried out on the 5th instar larvae, were the same as applied to 3rd instar larvae (n = 27) (eight compounds, one control; three biological replicates). The sequence of the gene-specific primers of EsigGOBP1 were as follow: forward primer: 5′-[…]-3′; reverse primer: 5′-[…] TCTCGT-3′ [37]. Roche LIGHT CYCLE 480II (USA) and Genious 2X SYBR Green Fast qPCR Mix (No ROX) (No. RK21205; ABclonal, Wuhan, China) were used for a PCR reaction under a three-step amplification program. Each 20 µL real-time fluorescence quantification PCR (qRT-PCR) reaction mixture contained 10 µL of Genious 2X SYBR Green Fast qPCR Mix, […] ([…]), 2 µL of sample cDNA (2.5 ng of RNA), and […] of dH2O (sterile distilled water), with the following cycling parameters: 95 °C for 180 s, followed by 40 cycles of 95 °C for 5 s, 60 °C for 30 s, and 65 °C to 95 °C in increments of 0.5 °C for 5 s to generate melting curves. The sequences of the primers of the reference gene, GADPH were forward primer 5′-[…]-3′; reverse primer 5′-[…]-3′ [60]. The measurement of the expression of EsigGOBP1 in head, thorax and abdomen of 3rd instar larvae followed the protocol of Zhang. Each qRT-PCR reaction for each volatile exposure and tissues, was performed in three biological replicates and three technical replicates in Roche LIGHT CYCLE 480II. The expression of EsigGOBP1, from exposure to o-cymene and camphene served as the control for the 3rd and 5th instar larvae, respectively, and GADPH was used to measure the relative gene expressions by the 2^−ΔΔCT method. The 2^−ΔCT method was used to measure gene expressions in the tissues of 3rd instar larvae with 0.91 amplicons efficiencies. Differences in the expression of olfactory proteins were determined using a one-sample t-test. All analyses were implemented in SPSS Statistics 18.0, and values are presented as means ± SE.

The test system of the next assay is E. signifer larvae. As to conditions: cited from earlier work; for attraction in behavior choice assays: ref [33],[34]; for influence on the behaviour of E. signifier: ref [35],[36].
The mark [2] stands for this setting: competitive binding against 1-NPN, read-out: calculated Kd.
The mark [3] stands for this setting: 3rd instar larvae, 24 h exposure to volatile.
[4] abbreviates: 5th instar larvae, 24 h exposure to volatile.

Take `c1ccc(Nc2cccc3ccccc23)cc1` [1-NPN, N-phenyl-1-naphthylamine, reference compound]: the Kd at recombinant EsigGOBP1 (binding curve and Scatchard plots, 1-NPN 2–24 μM, 2 μM EsigGOBP1, read-out: dissociation constant K1-NPN) worked out at 3380 nM.

In the case of `C=C(C)[C@H]1CC=C(C)CC1` [D-limonene], in the assay with recombinant EsigGOBP1, the “binding affinities for EsigGOBP1 (in words)” value (from here on “binding affinities”) is reported as “high binding affinities”, the Ki is 1430 nM and the IC50 was determined as 11400 nM. The Kd on recombinant EsigGOBP1 (setting [2]) is 1430 nM.

As for `CC12CCC(CC1)C(C)(C)O2` [Eucalyptol], in the assay on recombinant EsigGOBP1, the “binding affinities” value is “high binding affinities”, the Ki is 1270 nM and the IC50 came to 10100 nM. For the same compound, at recombinant EsigGOBP1 (setting [2]), the Kd was 1270 nM. Also, the “EsigGOBP1 expression vs control” value in assay [1] (setting [3]) was “downregulated; also recorded: significantly lower”. For the same compound, the “EsigGOBP1 expression vs control” value in assay [1] (setting [4]) is reported as “downregulated; also recorded: significantly lower”.

Consider `C=C1C2CCC(C2)C1(C)C` (centres unmarked) [Camphene], for which, in the assay with recombinant EsigGOBP1, the “binding affinities” value is listed as “high binding affinities” and the IC50 was determined as 7870 nM. Moreover, the Kd on recombinant EsigGOBP1 (setting [2]) is 990 nM.

With `C=C1CCC2CC1C2(C)C` (stereo not drawn) [β-Pinene], in the assay with recombinant EsigGOBP1, the “binding affinities” value is “high binding affinities”, the Ki is 1320 nM and the IC50 amounted to 10500 nM. At recombinant EsigGOBP1 (setting [2]), the Kd was 1320 nM. In the assay with E. signifer larvae (5th instar larvae), the “attraction in behavior choice assays” value was “significantly attracted”. In addition, in assay [1] (setting [4]), the “EsigGOBP1 expression vs control” value is listed as “downregulated”. The “EsigGOBP1 expression vs control” value in assay [1] (5th instar larvae, 24 h exposure to volatile, listed as β-pinene) is recorded as “extremely significantly lower”.

For the compound `CCc1ccc(C(C)=O)cc1` [4-ethylacetophenone], the “EsigGOBP1 expression vs control” value in assay [1] (setting [3]) is listed as “downregulated; also recorded: extremely significantly lower”.

`Cc1ccccc1C(C)C` [o-cymene]: in the assay on E. signifer larvae (3rd instar larvae), the “attraction in behavior choice assays” value is “significantly attracted”. The “EsigGOBP1 expression vs control” value in assay [1] (setting [3]) is “downregulated; also recorded: extremely significantly lower”; in assay [1] (setting [4]) it was “upregulated”.

For `CC1=CCC2C(C1)C2(C)C` (centres unmarked) [3-carene], in assay [1] (setting [3]), the “EsigGOBP1 expression vs control” value was “downregulated; also recorded: extremely significantly lower”.

On to `c1ccc2ccccc2c1` [Naphthalene], for which, in the assay on recombinant EsigGOBP1, the “binding affinities” value was “low binding affinities”, the inhibition constant Ki is 2690 nM and the IC50 was found to be 21500 nM. The Kd on recombinant EsigGOBP1 (setting [2]) was 2690 nM. Moreover, in assay [1] (setting [3]), the “EsigGOBP1 expression vs control” value is “upregulated”.

On to `CCc1ccccc1CC` [Benzene, 1,2-diethyl-], for which, in the assay on recombinant EsigGOBP1, the “binding affinities” value was “high binding affinities”, the Ki is 792 nM and the IC50 was 6300 nM. For the same compound, at recombinant EsigGOBP1 (setting [2]), the Kd was 790 nM. Further, the “influence on the behaviour of E. signifier” value in the assay on E. signifer larvae is “no obvious influence”. Besides, in assay [1] (5th instar larvae, 24 h exposure to volatile, 1,2-diethyl-), the “EsigGOBP1 expression vs control” value was “upregulated”.

On to `CC(C)(O)c1ccccc1` [2-Phenyl-2-propanol], for which, in the assay on recombinant EsigGOBP1, the “binding affinities” value is listed as “low binding affinities”, the Ki is 2760 nM and the IC50 stood at 22000 nM. Further, the Kd at recombinant EsigGOBP1 (setting [2]) was 2770 nM.

In the case of `CC1=CC[C@H](C(C)C)C=C1` [alpha-Phellandrene], in the assay on recombinant EsigGOBP1, the “binding affinities” value was “high binding affinities”, the Ki was 889 nM and the IC50 came out at 7080 nM. Besides, the Kd on recombinant EsigGOBP1 (setting [2]) was 890 nM. Besides, the “influence on the behaviour of E. signifier” value with E. signifer larvae was “no obvious influence”. Further, the “EsigGOBP1 expression vs control” value in assay [1] (setting [3]) was “downregulated; also recorded: extremely significantly lower”.

On to `C=CC(=O)OCCCC` [Butyl acrylate], for which, in the assay with recombinant EsigGOBP1, the “binding affinities” value is on record as “high binding affinities”, the Ki is 901 nM and the IC50 was 7180 nM. In addition, the Kd on recombinant EsigGOBP1 (setting [2]) is 900 nM.

For `Cc1cc(C)cc(C)c1` [1,3,5-trimethyl-benzen], in the assay with recombinant EsigGOBP1, the “binding affinities” value was “low binding affinities” and the inhibition constant Ki is 4600 nM. The Kd at recombinant EsigGOBP1 (setting [2]) was 4600 nM.

`CC1=CCC2CC1C2(C)C` (stereo not drawn) [alpha-Pinene]: in the assay on recombinant EsigGOBP1, the “binding affinities” value is reported as “high binding affinities”, the Ki was 1240 nM and the IC50 was determined as 9860 nM. For the same compound, at recombinant EsigGOBP1 (setting [2]), the Kd was 1240 nM.

Turning to `CCc1ccccc1C` [benzene, 1-ethyl-2-methyl-], in assay [1] (setting [4]), the “EsigGOBP1 expression vs control” value is “upregulated”.
